Reference: patent US20230085307A1, “PYRIDAZINONE COMPOUND AND HERBICIDE” (NISSAN CHEMICAL CORPORATION, priority 2019, published 2023)

Assays:
Italian ryegrass [1] = assay: Test Example 5: herbicidal effect by foliage application, plastic box (Table 20, symbol K); format: in vivo, Italian ryegrass (Lolium multiflorum); settings: foliage application, 320 g/ha, 3 weeks after application
In short: (§1)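 Plants sown in sterilized diluvial soil and grown 14 days in a greenhouse at 25° C to 30° C, then sprayed on the foliage with the compound's emulsion diluted in water to a predetermined herbicide amount. Injury to weeds and crops scored three weeks after application on a visual rating scale.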

barnyard grass [2] = assay: Test Example 5: herbicidal effect by foliage application, plastic box (Table 20, symbol H); format: in vivo, barnyard grass (Echinochloa crus-galli); settings: foliage application, 320 g/ha, 3 weeks after application
In short: as §1

lambsquarters [3] = assay: Test Example 4: herbicidal effect by soil treatment (Table 19, symbol O); format: in vivo, lambsquarters (Chenopodium album); settings: AAH 320 g/ha
In short: (§2)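 Seeds were sown in sterilized diluvial soil and covered with about 1.5 cm of soil. An emulsion formulation diluted with water to a predetermined herbicide amount was sprayed evenly onto the soil surface. Plants grew in a greenhouse at 25° C. to 30° C., and the effect was scored three weeks after application using criteria from an earlier test.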

persian speedwell = assay: Test Example 5: herbicidal effect by foliage application, plastic box (Table 20, symbol R); format: in vivo, Persian speedwell (Veronica persica); settings: foliage application, 320 g/ha, 3 weeks after application
In short: as §1

blackgrass = assay: Test Example 5: herbicidal effect by foliage application, plastic box (Table 20, symbol J); format: in vivo, blackgrass (Alopecurus myosuroides); settings: foliage application, 320 g/ha, 3 weeks after application
In short: as §1

barnyard grass [4] = assay: Test Example 4: herbicidal effect by soil treatment (Table 19, symbol H); format: in vivo, barnyard grass (Echinochloa crus-galli); settings: AAH 320 g/ha
In short: as §2

southern crabgrass [5] = assay: Test Example 5: herbicidal effect by foliage application, plastic box (Table 20, symbol F); format: in vivo, southern crabgrass (Digitaria ciliaris); settings: foliage application, 320 g/ha, 3 weeks after application
In short: as §1

wild oat [6] = assay: Test Example 4: herbicidal effect by soil treatment (Table 19, symbol I); format: in vivo, wild oat (Avena fatua); settings: AAH 320 g/ha
In short: as §2

green foxtail = assay: Test Example 4: herbicidal effect by soil treatment (Table 19, symbol G); format: in vivo, green foxtail (Setaria viridis); settings: AAH 320 g/ha
In short: as §2

barnyard grass [7] = assay: Test Example 3: herbicidal effect by foliage application, Wagner pot (Table 18, symbol H); format: in vivo, barnyard grass (Echinochloa crus-galli); settings: 320 g/ha
In short: (§3)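 Plants were sown in alluvial soil held under 0.1–0.5 cm standing water and grown 14 days in a greenhouse at 25–30 °C. An emulsifiable formulation, water-diluted to the set dose, was then sprayed onto the foliage, and effects were scored three weeks later using previously defined criteria.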

chickweed = assay: Test Example 4: herbicidal effect by soil treatment (Table 19, symbol P); format: in vivo, common chickweed (Stellaria media); settings: AAH 320 g/ha
In short: as §2

Italian ryegrass [8] = assay: Test Example 4: herbicidal effect by soil treatment (Table 19, symbol K); format: in vivo, Italian ryegrass (Lolium multiflorum); settings: AAH 320 g/ha
In short: as §2

lambsquarters [9] = assay: Test Example 5: herbicidal effect by foliage application, plastic box (Table 20, symbol O); format: in vivo, lambsquarters (Chenopodium album); settings: foliage application, 320 g/ha, 3 weeks after application
In short: as §1

late watergrass = assay: Test Example 2: herbicidal activity, application during weed generation under submerged conditions (Table 17, symbol A); format: in vivo, late watergrass (Echinochloa oryzicola); settings: AAH 320 g/ha; application during weed generation, submerged conditions
In short: (§4)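 Mixed weed seedlings in alluvial soil under a 4 cm water layer, greenhouse-grown at 25–30° C. Compound given as a diluted emulsion into the floodwater at the 1–2 leaf stage; response graded after three weeks.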

Japanese bulrush = assay: Test Example 2: herbicidal activity, application during weed generation under submerged conditions (Table 17, symbol B); format: in vivo, Japanese bulrush (Schoenoplectus juncoides); settings: AAH 320 g/ha; application during weed generation, submerged conditions
In short: as §4

velvetleaf = assay: Test Example 4: herbicidal effect by soil treatment (Table 19, symbol M); format: in vivo, velvetleaf (Abutilon theophrasti); settings: AAH 320 g/ha
In short: as §2

windgrass = assay: Test Example 5: herbicidal effect by foliage application, plastic box (Table 20, symbol L); format: in vivo, windgrass (Apera spica-venti); settings: foliage application, 320 g/ha, 3 weeks after application
In short: as §1

redroot pigweed = assay: Test Example 4: herbicidal effect by soil treatment (Table 19, symbol N); format: in vivo, redroot pigweed (Amaranthus retroflexus); settings: AAH 320 g/ha
In short: as §2

wild oat [10] = assay: Test Example 5: herbicidal effect by foliage application, plastic box (Table 20, symbol I); format: in vivo, wild oat (Avena fatua); settings: foliage application, 320 g/ha, 3 weeks after application
In short: as §1

rice flat sedge = assay: Test Example 3: herbicidal effect by foliage application, Wagner pot (Table 18, symbol E); format: in vivo, rice flat sedge (Cyperus iria); settings: 320 g/ha
In short: as §3

southern crabgrass [11] = assay: Test Example 4: herbicidal effect by soil treatment (Table 19, symbol F); format: in vivo, southern crabgrass (Digitaria ciliaris); settings: AAH 320 g/ha
In short: as §2

Row | SMILES | effect on Italian ryegrass (K) (Italian ryegrass [1]) | effect on barnyard grass (H) (barnyard grass [2]) | O: lambsquarters, herbicidal effect rating (lambsquarters [3]) | effect on persian speedwell (R) (persian speedwell) | effect on blackgrass (J) (blackgrass) | H: barnyard grass, herbicidal effect rating (barnyard grass [4]) | effect on southern crabgrass (F) (southern crabgrass [5]) | I: wild oat, herbicidal effect rating (wild oat [6]) | G: green foxtail, herbicidal effect rating (green foxtail) | herbicidal effect on H (barnyard grass), rating 0-5 (barnyard grass [7]) | P: chickweed, herbicidal effect rating (chickweed) | K: Italian ryegrass, herbicidal effect rating (Italian ryegrass [8]) | effect on lambsquarters (O) (lambsquarters [9]) | herbicidal effect rating, A: late watergrass (late watergrass) | herbicidal effect rating, B: Japanese bulrush (Japanese bulrush) | M: velvetleaf, herbicidal effect rating (velvetleaf) | effect on windgrass (L) (windgrass) | N: redroot pigweed, herbicidal effect rating (redroot pigweed) | effect on wild oat (I) (wild oat [10]) | herbicidal effect on E (rice flat sedge), rating 0-5 (rice flat sedge) | also measured
1 | COCC(C)Oc1ccc(-c2sc3ccccc3c2-c2c(O)c(C)nn(C)c2=O)cc1 (racemic) [1-228] | 4 (Herbicidal rate of 70% or more and less than 90%) | 5 (Herbicidal rate of 90% or more (almost completely withered)) | 5 (Herbicidal rate of 90% or more (almost completely withered)) | 5 (Herbicidal rate of 90% or more (almost completely withered)) | 5 (Herbicidal rate of 90% or more (almost completely withered)) | 4 (Herbicidal rate of 70% or more and less than 90%) | 5 (Herbicidal rate of 90% or more (almost completely withered)) | 0 (Herbicidal rate of 5% or less (almost no effect)) | 5 (Herbicidal rate of 90% or more (almost completely withered)) | 5 (Herbicidal rate of 90% or more (almost completely withered)) | 4 (Herbicidal rate of 70% or more and less than 90%) | 4 (Herbicidal rate of 70% or more and less than 90%) | 5 (Herbicidal rate of 90% or more (almost completely withered)) | 5 (Herbicidal rate of 90% or more (almost completely withered)) | 3 (Herbicidal rate of 40% or more and less than 70%) | 4 (Herbicidal rate of 70% or more and less than 90%) | 5 (Herbicidal rate of 90% or more (almost completely withered)) | 5 (Herbicidal rate of 90% or more (almost completely withered)) | 0 (Herbicidal rate of 5% or less (almost no effect)) | 4 (Herbicidal rate of 70% or more and less than 90%) | F: southern crabgrass, herbicidal effect rating (southern crabgrass [11]): 4 (Herbicidal rate of 70% or more and less than 90%)
2 | CCC(COc1ccc(-c2sc3ccccc3c2-c2c(O)c(C)nn(C)c2=O)cc1)OC (racemic) [1-230] | 4 (Herbicidal rate of 70% or more and less than 90%) | 5 (Herbicidal rate of 90% or more (almost completely withered)) | 5 (Herbicidal rate of 90% or more (almost completely withered)) | 5 (Herbicidal rate of 90% or more (almost completely withered)) | 5 (Herbicidal rate of 90% or more (almost completely withered)) | 3 (Herbicidal rate of 40% or more and less than 70%) | 5 (Herbicidal rate of 90% or more (almost completely withered)) | 0 (Herbicidal rate of 5% or less (almost no effect)) | 4 (Herbicidal rate of 70% or more and less than 90%) | 5 (Herbicidal rate of 90% or more (almost completely withered)) | 2 (Herbicidal rate of 20% or more and less than 40%) | 4 (Herbicidal rate of 70% or more and less than 90%) | 5 (Herbicidal rate of 90% or more (almost completely withered)) | 4 (Herbicidal rate of 70% or more and less than 90%) | 3 (Herbicidal rate of 40% or more and less than 70%) | 4 (Herbicidal rate of 70% or more and less than 90%) | 4 (Herbicidal rate of 70% or more and less than 90%) | 5 (Herbicidal rate of 90% or more (almost completely withered)) | 4 (Herbicidal rate of 70% or more and less than 90%) | 3 (Herbicidal rate of 40% or more and less than 70%) | F: southern crabgrass, herbicidal effect rating (southern crabgrass [11]): 0 (Herbicidal rate of 5% or less (almost no effect))
3 | Cc1nn(C)c(=O)c(-c2c(-c3ccc(OCCBr)cc3)sc3ccccc23)c1O [1-204] | 3 (Herbicidal rate of 40% or more and less than 70%) | 3 (Herbicidal rate of 40% or more and less than 70%) | 3 (Herbicidal rate of 40% or more and less than 70%) | 5 (Herbicidal rate of 90% or more (almost completely withered)) | 0 (Herbicidal rate of 5% or less (almost no effect)) | 0 (Herbicidal rate of 5% or less (almost no effect)) | 4 (Herbicidal rate of 70% or more and less than 90%) | 0 (Herbicidal rate of 5% or less (almost no effect)) | 0 (Herbicidal rate of 5% or less (almost no effect)) | 4 (Herbicidal rate of 70% or more and less than 90%) | 0 (Herbicidal rate of 5% or less (almost no effect)) | 0 (Herbicidal rate of 5% or less (almost no effect)) | 4 (Herbicidal rate of 70% or more and less than 90%) | 0 (Herbicidal rate of 5% or less (almost no effect)) | 3 (Herbicidal rate of 40% or more and less than 70%) | 0 (Herbicidal rate of 5% or less (almost no effect)) | 0 (Herbicidal rate of 5% or less (almost no effect)) | 3 (Herbicidal rate of 40% or more and less than 70%) | 0 (Herbicidal rate of 5% or less (almost no effect)) | 5 (Herbicidal rate of 90% or more (almost completely withered)) | F: southern crabgrass, herbicidal effect rating (southern crabgrass [11]): 0 (Herbicidal rate of 5% or less (almost no effect))
